Assay results taken from PMC5554220, “A Novel Aldosterone Antagonist Limits Renal Injury in 5/6 Nephrectomy” (Scientific Reports, 2017).

Tests used:
[1] = system: human androgen receptor (hAR); assay: Radioligand binding, [3H]mibolerone, hAR expressed in Sf9; conditions: selectivity
Protocol: Full-length human mineralocorticoid receptor (hMR) to be used in radioligand binding was isolated from a human kidney cDNA library (Clontech, Palo Alto, CA). […] The hMR, hPR, and hAR cDNAs were subcloned in the eukaryotic expression vector pcDNA3. Methods for the expression of functionally active hMR, hAR and hPR utilizing the baculovirus expression system were described previously, [31].
Affinity of ligands to the soluble receptor was determined using vacuum filtration methods, preparing soluble receptors in 96-well Falcon polystyrene plates (BD Biosciences, Bedford, MA) in a total volume of 250 μl. […] Binding studies for ligands for hPR and hAR were determined using [1,2,6,7-3H(N)] […] Specific binding of 3H-progesterone for hPR and 3H-mibolerone for hAR was determined in the presence and absence of 1 μM mifepristone. Inhibition constants (Ki), were determined either from the Cheng-Prusoff equation[32], or directly using non-linear regression curve fitting to a three-parameter one-site competitive equation. […] Protein was measured using colorimetric detection and quantification of bicinchoninic acid (BCA Protein Assay, Pierce, Rockford, IL). […] Concentration response curves were analyzed statistically using a four-parameter logistic equation (Hill equation for sigmoid curves). […]

[2] = system: rats with 5/6 renal ablation (Nx); assay: Protocol 1 (early treatment), 5/6 renal ablation (Nx); type: in vivo, male Munich-Wistar rats
Excerpt: (§1) One-hundred forty-five adult male Munich-Wistar rats, obtained from a local facility at the Faculty of Medicine, University of São Paulo, weighing between 220 and 250 g, were used in this study. All experimental procedures were approved by the local Research Ethics Committee (Comissão de Ética para Análise de Projetos de Pesquisa do Hospital das Clínicas da Faculdade de Medicina da Universidade de São Paulo, CAPPesq, process n° 0905/09), and carried out following strictly our institutional guidelines and current international standards for manipulation and care of laboratory animals. Body weights and general conditions were assessed daily. Five-sixths renal ablation (Nx) was performed as a single-step procedure under anesthesia with ketamine 50 mg/kg and xylazine 10 mg/kg im. After ventral laparotomy, the right kidney was excised and two or three branches of the left renal artery were ligated, so as to promote infarction of two-thirds of the left kidney. The operation was invariably well tolerated. Sham-operated rats underwent anesthesia and manipulation of the renal pedicles without removal of renal mass. After surgery, rats received enrofloxacin and, upon recovery, had free access to tap water and regular rodent chow containing 0.5 Na and 22% protein (Nuvital Labs, Curitiba, Brazil), and were kept at 23 ± 1 °C and 60 ± 5% relative air humidity, under an artificial 12–12 hour light/dark cycle. Rats were then treated following two different experimental protocols (described later).
In this first protocol, Nx rats were divided into groups: NX + V (N = 8), receiving vehicle; NX + Eple (N = 8), receiving oral (mixed with the chow) Eple, 150 mg/kg/day; and Nx + Ly (N = 8), receiving oral Ly, 20 mg/kg/day. A group of sham-operated rats (S, N = 7) was also studied. Treatments were started 24 h after surgery. Rats were followed during 60 days, with determination of TCP and UalbV on Days 30 and 60. TCP was assessed with an optoelectronic automated device (Visitech Systems, Apex, NC), after rats had been preconditioned so as to remain calm during the procedure. UalbV was measured with a conventional immunodiffusion technique. On Day 60, rats were anesthetized as described before, and blood was collected from the abdominal aorta for determination of serum creatinine, serum K^+, PRA and PAC. The remnant kidney was then perfusion-fixed with Duboscq-Brazil solution after a brief washout with saline to remove blood from renal vessels, and prepared for histomorphometric and immunohistochemical analyses using conventional sequential techniques.
(§2) Histomorphometric analysis was performed blindly by two independent observers. The extent of glomerular injury was estimated, in PAS-stained sections, by determining the percentage of glomeruli with sclerotic lesions. The fraction of the renal cortical area occupied by interstitial tissue (%INT) was estimated in 25 consecutive microscopic fields of Masson-stained sections by a point-counting technique, at a final magnification of 200X, under a 144-point grid.
PRA and PAC were determined using commercially available radioimmunoassay kits (Renin Active IRMA and Aldosterone Active RIA, Beckman Coulter, Carlsbad, CA).

[3] = system: rats with 5/6 renal ablation (Nx); assay: Protocol 2 (late treatment), 5/6 renal ablation (Nx); type: in vivo, male Munich-Wistar rats; conditions: Ly as an add-on to L, Day 150
Excerpt: as §1
In Protocol 2, adult male Munich-Wistar rats were subjected to Nx as described earlier, and left untreated for two months. At this time, TCP and UalbV were assessed as described earlier. Rats with TCP ≤ 170 mmHg or UalbV ≤ 40 mg/day were excluded from the study. The remaining […] Nx rats were divided into four experimental groups: Nx + V (N = 14), untreated Nx rats; Nx + L (N = 15), receiving oral L, 50 mg/kg in drinking water; Nx + L + Eple (N = 14), receiving L and Eple (N = 14), 150 mg/kg/day; and Nx + L + Ly (N = 14), receiving L and Ly (20 mg/kg/day) as described before. A group of S rats (N = 16) was also included. All groups were followed for 90 days after treatments were started (150 days after nephrectomy), with monthly measurement of TCP and UalbV. At the end of this period, rats were anesthetized, blood was collected, and the renal tissue was perfusion-fixed and prepared for histomorphometric and immunohistochemical examination in the same manner as for Protocol 1.
as §2
Immunohistochemistry was performed on 4-μm-thick sections, mounted on glass slides precoated with 2% silane. Sections were deparaffinized and rehydrated by conventional techniques, then heated in citrate buffer for antigen retrieval and incubated overnight with the primary antibody at 4 °C (no antibody in negative control experiments). Primary antibodies used were: monoclonal mouse anti-rat ED-1 (Serotec, Oxford, UK); polyclonal rabbit anti-human AngII (Peninsula Laboratories, San Carlos, CA); and polyclonal rabbit anti-collagen I (Abcam, Cambridge, UK).
For ED-1 detection, sections were preincubated with 5% normal rabbit serum to prevent nonspecific binding, then incubated overnight at 4 °C with the primary antibody diluted in BSA at 1%. […]

SMILES: O=c1[nH]c2ccc(/C=C3\c4ccc(F)cc4COc4cc(F)ccc43)cc2[nH]1 [Ly]
- Ratio of Ki's hAR: hMR [1]: 202
- Albumin excretion rate (UalbV) ([2]; 60 days after ablation, Eple 150 mg/kg/day, Ly 20 mg/kg/day oral): significantly lower in Ly-treated than in untreated or Eple-treated rats
- Fractional cortical interstitial area ([2]; Day 60): significantly diminished
- Left kidney weight corrected for body weight (renal hypertrophy) ([2]; Day 60): renal hypertrophy was significantly attenuated
- Plasma renin activity (PRA) ([2]; Day 60): markedly increased PRA
- PAC relative to sham (S) ([2]; Day 60, higher than in S): over 30 fold
- Plasma K+ levels ([2]; Day 60, versus Nx + V): not aggravated
- Tail-cuff pressure (TCP) ([2]; Eple 150 mg/kg/day, Ly 20 mg/kg/day oral): More pronounced attenuation of hypertension
- Interstitial expansion (cortical interstitial area) [3]: reduced to levels significantly lower than in the Nx + V group
